{"source": "ChEMBL document CHEMBL1201862", "about": "“PubChem BioAssay data set” (2004)", "key": {"[1]": {"target": "DNA dC->dU-editing enzyme APOBEC-3A (Homo sapiens, UniProt P31941)", "sequence (P31941 whole entry)": "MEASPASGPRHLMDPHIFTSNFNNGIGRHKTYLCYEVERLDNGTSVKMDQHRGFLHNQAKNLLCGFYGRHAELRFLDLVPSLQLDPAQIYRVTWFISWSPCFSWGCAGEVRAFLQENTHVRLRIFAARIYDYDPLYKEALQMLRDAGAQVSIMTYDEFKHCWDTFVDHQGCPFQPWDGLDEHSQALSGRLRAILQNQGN", "assay": "Dose Response confirmation of small molecule APOBEC3A DNA Deaminase Inhibitors via a fluorescence-based single-stranded DNA deaminase assay. [Related pubchem assays (depositor defined):AID493011, AID493024]", "format": "functional"}, "[2]": {"target": "T1, Ubiquitin-conjugating enzyme E2 N (Homo sapiens, UniProt P61088)", "T1 sequence (P61088 whole entry)": "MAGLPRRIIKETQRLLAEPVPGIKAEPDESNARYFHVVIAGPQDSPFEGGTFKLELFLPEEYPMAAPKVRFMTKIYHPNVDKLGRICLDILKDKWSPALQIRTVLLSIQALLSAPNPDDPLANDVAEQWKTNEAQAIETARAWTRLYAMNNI", "format": "functional"}, "[3]": {"target": "DNA dC->dU-editing enzyme APOBEC-3G (Homo sapiens, UniProt Q9HC16)", "sequence (Q9HC16 whole entry)": "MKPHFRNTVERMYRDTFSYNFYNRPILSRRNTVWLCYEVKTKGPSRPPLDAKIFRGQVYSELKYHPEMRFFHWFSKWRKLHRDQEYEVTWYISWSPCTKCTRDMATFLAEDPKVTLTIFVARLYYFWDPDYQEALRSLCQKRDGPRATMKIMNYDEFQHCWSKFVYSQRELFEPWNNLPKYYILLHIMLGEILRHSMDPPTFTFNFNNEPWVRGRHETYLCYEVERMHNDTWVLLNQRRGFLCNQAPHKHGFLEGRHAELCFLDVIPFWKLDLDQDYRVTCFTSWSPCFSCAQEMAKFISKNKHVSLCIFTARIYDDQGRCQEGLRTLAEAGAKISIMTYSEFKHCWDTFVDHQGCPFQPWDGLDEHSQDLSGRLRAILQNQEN", "format": "functional"}, "[4]": {"target": "T2, Microphthalmia-associated transcription factor (Homo sapiens, UniProt O75030)", "T2 sequence (O75030 whole entry)": "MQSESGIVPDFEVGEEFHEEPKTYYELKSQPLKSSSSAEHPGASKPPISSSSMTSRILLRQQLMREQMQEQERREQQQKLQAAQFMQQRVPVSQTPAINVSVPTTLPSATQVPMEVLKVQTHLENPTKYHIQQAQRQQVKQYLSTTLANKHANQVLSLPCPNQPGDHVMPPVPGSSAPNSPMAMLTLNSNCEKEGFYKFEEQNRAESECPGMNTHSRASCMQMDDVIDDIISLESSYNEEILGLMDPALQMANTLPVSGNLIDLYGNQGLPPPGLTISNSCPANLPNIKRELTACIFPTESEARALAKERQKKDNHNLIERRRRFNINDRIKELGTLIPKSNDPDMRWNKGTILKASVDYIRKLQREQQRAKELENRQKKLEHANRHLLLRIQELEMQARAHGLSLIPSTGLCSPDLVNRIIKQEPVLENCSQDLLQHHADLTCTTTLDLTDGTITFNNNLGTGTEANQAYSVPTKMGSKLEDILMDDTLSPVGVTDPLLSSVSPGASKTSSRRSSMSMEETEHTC", "assay": "TRPM1 promoter luciferase signal decrease, dose response, MITF inhibitor project, cell-based, SK-MEL-5, cherry-picked, set 3 (AID 493073)", "format": "functional"}, "A-375 [5]": {"tested_on": "A-375", "assay": "MITF: Counter assay: A375 proliferation Measured in Cell-Based System Using Plate Reader - 2084-03_Inhibitor_Dose_DryPowder_Activity. [Related pubchem assays (depositor defined):AID488944]", "format": "functional", "settings": "Homo sapiens"}, "A-375 [6]": {"tested_on": "A-375", "assay": "A375 melanoma cell viability reduction, dose response, counter-screen for MITF modulator project, cherry-pick samples, set 2 (AID 540335)", "format": "functional, cell-based", "settings": "Homo sapiens"}, "INS1": {"tested_on": "INS1", "assay": "beta cell apoptosis inhibitors, cytokine rescue, dose response, luminescence, retest (AID 449756);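 further: cell death triggered by IL-1 beta plus TNF-alpha plus IFN-gamma mixture; protective hits raise ATP signal compared with cytokine alone wells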", "format": "functional, cell-based", "settings": "Rattus norvegicus"}, "Beta-galactosidase": {"target": "Beta-galactosidase (Escherichia coli, UniProt Q8VNN2)", "sequence (Q8VNN2 whole entry)": "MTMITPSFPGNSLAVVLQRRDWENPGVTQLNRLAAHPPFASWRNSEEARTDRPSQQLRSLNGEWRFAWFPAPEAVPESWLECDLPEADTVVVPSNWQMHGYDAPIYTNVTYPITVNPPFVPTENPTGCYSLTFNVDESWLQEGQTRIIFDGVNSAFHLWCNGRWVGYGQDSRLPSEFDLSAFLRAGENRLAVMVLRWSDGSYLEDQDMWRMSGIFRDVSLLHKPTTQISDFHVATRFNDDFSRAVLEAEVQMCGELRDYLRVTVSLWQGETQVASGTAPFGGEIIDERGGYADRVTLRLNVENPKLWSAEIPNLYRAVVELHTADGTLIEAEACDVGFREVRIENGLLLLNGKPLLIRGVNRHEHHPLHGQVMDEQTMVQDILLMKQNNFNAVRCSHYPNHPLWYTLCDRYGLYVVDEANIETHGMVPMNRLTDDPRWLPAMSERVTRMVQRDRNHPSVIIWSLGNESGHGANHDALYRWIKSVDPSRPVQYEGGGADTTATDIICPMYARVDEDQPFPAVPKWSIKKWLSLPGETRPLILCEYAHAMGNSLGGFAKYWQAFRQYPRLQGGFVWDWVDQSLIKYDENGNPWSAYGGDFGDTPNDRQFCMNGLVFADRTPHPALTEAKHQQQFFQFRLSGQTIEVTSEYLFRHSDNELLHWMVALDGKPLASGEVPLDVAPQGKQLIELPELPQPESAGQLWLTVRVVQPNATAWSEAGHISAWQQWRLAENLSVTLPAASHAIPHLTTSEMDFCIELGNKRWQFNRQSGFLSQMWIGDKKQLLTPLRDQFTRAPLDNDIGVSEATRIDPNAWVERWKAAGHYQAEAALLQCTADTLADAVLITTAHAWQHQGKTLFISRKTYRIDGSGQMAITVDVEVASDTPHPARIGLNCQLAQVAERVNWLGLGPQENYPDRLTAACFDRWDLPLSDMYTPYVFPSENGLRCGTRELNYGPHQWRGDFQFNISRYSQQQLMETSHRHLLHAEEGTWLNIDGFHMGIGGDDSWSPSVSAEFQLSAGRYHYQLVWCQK", "assay": "beta-galactosidase enzyme inhibitors and activators, dose response, artefact control for CCR6 antagonist project, biochemical, E. coli enzyme, set 3 (AID 504712)", "format": "functional"}, "[7]": {"target": "T3, Polyadenylate-binding protein 1 (Homo sapiens, UniProt P11940)", "T3 sequence (P11940 whole entry)": "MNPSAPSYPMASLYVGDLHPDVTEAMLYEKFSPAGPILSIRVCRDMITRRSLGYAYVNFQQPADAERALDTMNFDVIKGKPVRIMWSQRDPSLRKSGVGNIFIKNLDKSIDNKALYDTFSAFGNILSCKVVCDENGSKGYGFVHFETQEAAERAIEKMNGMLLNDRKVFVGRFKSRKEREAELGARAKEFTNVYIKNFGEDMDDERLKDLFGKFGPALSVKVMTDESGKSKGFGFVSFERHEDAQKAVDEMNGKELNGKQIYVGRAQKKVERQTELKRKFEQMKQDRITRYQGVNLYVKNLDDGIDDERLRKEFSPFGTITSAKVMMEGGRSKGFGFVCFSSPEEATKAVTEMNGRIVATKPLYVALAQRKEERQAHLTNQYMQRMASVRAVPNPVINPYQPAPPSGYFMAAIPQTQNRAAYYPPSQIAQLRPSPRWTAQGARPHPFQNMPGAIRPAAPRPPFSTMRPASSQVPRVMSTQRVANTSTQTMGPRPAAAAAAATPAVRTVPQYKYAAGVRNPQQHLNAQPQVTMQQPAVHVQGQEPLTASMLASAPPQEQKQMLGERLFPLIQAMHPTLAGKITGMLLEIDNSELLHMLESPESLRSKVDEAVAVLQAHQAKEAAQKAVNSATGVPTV", "assay": "PABP1 MLLE–PAM2 interaction inhibitors, dose response, miRNA deadenylation inhibitor project, biochemical, fluorescence polarization, Cy5-PAM2 peptide, secondary (AID 602260)", "format": "functional", "settings": "read-out: IC50_Mean"}, "[8]": {"target": "T3, Polyadenylate-binding protein 1", "assay": "PABP1 MLLE–PAM2 binding inhibitor potency, dose response, biochemical, fluorescence polarization, FITC-PAM2 peptide (AID 602259)", "format": "functional", "settings": "read-out: IC50_Mean"}, "Cytochrome P450 2C9": {"target": "Cytochrome P450 2C9 (Homo sapiens, UniProt P11712)", "sequence (P11712 whole entry)": "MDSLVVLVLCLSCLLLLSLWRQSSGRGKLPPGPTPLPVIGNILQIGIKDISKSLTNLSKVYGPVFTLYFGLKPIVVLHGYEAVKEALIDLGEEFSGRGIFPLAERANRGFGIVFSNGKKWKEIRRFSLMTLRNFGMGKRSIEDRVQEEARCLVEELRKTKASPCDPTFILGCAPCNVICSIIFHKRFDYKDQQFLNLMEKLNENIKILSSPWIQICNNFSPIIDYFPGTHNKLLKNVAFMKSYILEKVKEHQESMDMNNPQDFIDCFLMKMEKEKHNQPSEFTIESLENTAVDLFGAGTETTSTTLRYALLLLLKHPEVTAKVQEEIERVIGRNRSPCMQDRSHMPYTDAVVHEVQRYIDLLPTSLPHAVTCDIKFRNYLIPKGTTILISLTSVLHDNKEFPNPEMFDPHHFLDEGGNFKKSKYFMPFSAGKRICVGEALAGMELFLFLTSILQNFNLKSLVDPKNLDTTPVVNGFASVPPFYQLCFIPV"}, "[9]": {"assay": "Luminescence Cell-Based Dose Confirmation HTS to Identify Activators of 5'UTR Stem-Loop Driven Alpha-Synuclein mRNA Translation in H4 Neuroglioblastoma Cells. [Related pubchem assays: 1829 (Project Summary), 1814 (Primary HTS)]", "format": "functional"}, "[10]": {"assay": "Luminescence Cell-Based Dose Response HTS to Identify Activators of Luciferase Translation or Activity in H4 […] Cells. [Related pubchem assays: 1829 (Project Summary), 1814 (Primary HTS)]", "format": "functional"}, "cells [11]": {"assay": "cells", "format": "functional, cell-based"}, "H4": {"tested_on": "H4", "assay": "Luminescence Cell-Based Dose Response HTS to Identify Activators of 5'UTR Stem-Loop Driven Prion Protein mRNA Translation in H4 Neuroglioblastoma Cells. [Related pubchem assays: 1829 (Project Summary), 1814 (Primary HTS)]", "format": "functional", "settings": "Homo sapiens"}, "cells [12]": {"assay": "cells", "format": "functional, cell-based", "remark": "listed apart in the source"}, "HEK293": {"tested_on": "HEK293", "assay": "cells", "format": "functional, cell-based", "settings": "Homo sapiens"}, "[13]": {"target": "T4, Nuclear receptor subfamily 0 group B member 1 (Homo sapiens, UniProt P51843)", "T4 sequence (P51843 whole entry)": "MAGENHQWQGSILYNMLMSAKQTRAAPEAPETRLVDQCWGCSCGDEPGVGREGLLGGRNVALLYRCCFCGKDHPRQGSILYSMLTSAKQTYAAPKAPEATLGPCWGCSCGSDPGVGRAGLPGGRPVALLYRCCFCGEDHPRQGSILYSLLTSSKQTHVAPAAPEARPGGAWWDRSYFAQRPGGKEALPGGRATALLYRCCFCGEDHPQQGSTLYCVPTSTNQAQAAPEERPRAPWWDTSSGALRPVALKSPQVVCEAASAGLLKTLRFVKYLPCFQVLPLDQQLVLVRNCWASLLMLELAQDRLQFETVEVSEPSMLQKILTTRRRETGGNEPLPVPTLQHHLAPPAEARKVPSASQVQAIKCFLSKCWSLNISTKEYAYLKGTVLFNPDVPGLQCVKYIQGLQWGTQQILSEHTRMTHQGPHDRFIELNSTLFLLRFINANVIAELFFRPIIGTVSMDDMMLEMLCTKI", "assay": "Luminescence-based cell-based high throughput dose response assay for inhibitors of the orphan nuclear receptor subfamily 0, group B, member 1 (DAX1; NR0B1). [Related pubchem assays (depositor defined):AID504766, AID504790]", "format": "functional"}, "[14]": {"assay": "HepG2 cell cytotoxicity, dose response, cytotoxicity control, ATP luminescence, cherry-pick, activator set 2 (AID 1053143)", "format": "functional, cell-based"}, "[15]": {"target": "T5, Oxysterols receptor LXR-beta (Homo sapiens, UniProt P55055)", "T5 sequence (P55055 whole entry)": "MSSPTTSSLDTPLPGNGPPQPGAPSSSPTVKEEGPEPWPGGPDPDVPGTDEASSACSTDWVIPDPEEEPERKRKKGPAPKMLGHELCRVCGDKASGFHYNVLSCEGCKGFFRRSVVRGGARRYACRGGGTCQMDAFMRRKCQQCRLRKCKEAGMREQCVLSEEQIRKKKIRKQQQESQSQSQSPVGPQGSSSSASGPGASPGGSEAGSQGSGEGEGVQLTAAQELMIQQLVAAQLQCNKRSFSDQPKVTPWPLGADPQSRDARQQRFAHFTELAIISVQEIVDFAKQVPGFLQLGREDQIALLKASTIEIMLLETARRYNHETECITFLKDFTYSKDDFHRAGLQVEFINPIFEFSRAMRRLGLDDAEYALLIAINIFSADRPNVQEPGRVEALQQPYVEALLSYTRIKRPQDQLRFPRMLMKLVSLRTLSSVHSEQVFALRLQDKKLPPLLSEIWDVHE", "format": "functional, cell-based"}, "[16]": {"target": "Voltage-gated inwardly rectifying potassium channel KCNH2 (Homo sapiens, UniProt Q12809)", "sequence (Q12809 whole entry)": "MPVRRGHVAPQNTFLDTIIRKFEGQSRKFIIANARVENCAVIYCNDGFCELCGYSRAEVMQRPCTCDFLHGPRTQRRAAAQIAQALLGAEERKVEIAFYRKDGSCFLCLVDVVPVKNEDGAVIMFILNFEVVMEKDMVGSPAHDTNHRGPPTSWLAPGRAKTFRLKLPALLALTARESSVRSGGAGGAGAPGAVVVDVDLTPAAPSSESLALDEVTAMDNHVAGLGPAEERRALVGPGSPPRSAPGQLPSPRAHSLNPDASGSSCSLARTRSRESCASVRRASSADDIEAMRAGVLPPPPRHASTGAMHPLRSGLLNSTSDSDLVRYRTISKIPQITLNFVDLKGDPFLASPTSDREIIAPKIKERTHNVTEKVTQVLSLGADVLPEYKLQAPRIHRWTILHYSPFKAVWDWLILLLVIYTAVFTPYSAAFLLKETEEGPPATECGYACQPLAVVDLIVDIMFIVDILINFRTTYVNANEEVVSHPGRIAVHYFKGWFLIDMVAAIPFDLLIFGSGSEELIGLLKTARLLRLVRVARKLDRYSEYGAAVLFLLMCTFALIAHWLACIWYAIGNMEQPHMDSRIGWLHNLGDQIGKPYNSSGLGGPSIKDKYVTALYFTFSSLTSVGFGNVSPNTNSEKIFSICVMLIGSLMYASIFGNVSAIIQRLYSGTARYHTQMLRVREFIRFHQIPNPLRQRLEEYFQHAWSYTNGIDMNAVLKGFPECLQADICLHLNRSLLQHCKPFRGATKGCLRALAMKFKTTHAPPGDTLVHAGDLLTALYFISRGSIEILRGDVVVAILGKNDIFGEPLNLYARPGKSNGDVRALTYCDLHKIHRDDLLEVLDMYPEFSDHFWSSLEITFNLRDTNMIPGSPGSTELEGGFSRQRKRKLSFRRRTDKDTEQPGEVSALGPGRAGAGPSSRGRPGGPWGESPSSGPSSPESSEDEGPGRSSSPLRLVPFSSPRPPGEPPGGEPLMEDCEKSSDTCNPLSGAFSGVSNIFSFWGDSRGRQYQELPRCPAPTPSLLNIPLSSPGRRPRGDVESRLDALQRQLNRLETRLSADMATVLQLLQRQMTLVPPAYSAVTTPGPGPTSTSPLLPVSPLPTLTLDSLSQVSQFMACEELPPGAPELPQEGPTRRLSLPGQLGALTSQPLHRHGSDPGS", "settings": "Potency"}}, "note": "Where a name gives a salt, the structure may show the parent alone. Activity calls are given as the source filed them.", "data": [{"smiles": "COC(=O)C1=C(C)N(Cc2ccccc2)C(NCCc2cccnc2)=N[C@H]1c1ccc(Br)cc1", "values": [{"measurement": "IC50", "setting": "[1]", "value": "3.04 µM (active)"}, {"measurement": "IC50", "setting": "[2]", "value": "> 20 µM (inactive)"}, {"measurement": "IC50", "setting": "[3]", "value": "4.68 µM (active)"}, {"measurement": "AC50", "setting": "[4]", "value": "17.8 µM (active)"}, {"measurement": "AC50", "setting": "A-375 [5]", "value": "> 11 µM (active)"}, {"measurement": "AC50", "setting": "A-375 [6]", "value": "> 11 µM (active)"}]}, {"smiles": "CC(C)Oc1ccc(C(CCN)C2CCCCC2)cc1", "note": "(stereo unspecified)", "values": [{"measurement": "AC50", "setting": "[4]", "value": "9.99 µM (active)"}, {"measurement": "AC50", "setting": "A-375 [5]", "value": "17.7 µM (active)"}, {"measurement": "AC50", "setting": "INS1", "value": "7.47 µM (active)"}]}, {"smiles": "O=C1NC(=S)NC(=O)C1=Cc1cccc2cc3ccccc3cc12", "values": [{"measurement": "IC50", "setting": "Beta-galactosidase", "value": "> 66.6 µM (inactive)"}, {"measurement": "AC50", "setting": "[4]", "value": "4.81 µM (active)"}, {"measurement": "AC50", "setting": "A-375 [5]", "value": "> 35 µM (active)"}, {"measurement": "AC50", "setting": "A-375 [6]", "value": "> 35 µM (active)"}, {"measurement": "IC50", "setting": "[7]", "value": "> 66 µM (inactive)"}, {"measurement": "IC50", "setting": "[8]", "value": "> 66 µM (inactive)"}, {"measurement": "AC50", "setting": "Cytochrome P450 2C9", "value": "3.16 µM (inconclusive)"}]}, {"smiles": "O=C(Nc1ccccc1O)c1ccc(NS(=O)(=O)c2cccc3cccnc23)cc1", "values": [{"measurement": "EC50", "setting": "[9]", "value": "11.2 µM (active)"}, {"measurement": "EC50", "setting": "[10]", "value": "10.7 µM (active)"}, {"measurement": "EC50", "setting": "cells [11]", "value": "8.05 µM (active)"}, {"measurement": "EC50", "setting": "H4", "value": "34 µM (active)"}, {"measurement": "EC50", "setting": "cells [12]", "value": "> 350 µM (not active)"}, {"measurement": "IC50", "setting": "HEK293", "value": "0.695 µM (active)"}, {"measurement": "IC50", "setting": "[13]", "value": "> 67.5 µM (inactive)"}, {"measurement": "AC50", "setting": "[14]", "value": "9.01 µM (active)"}, {"measurement": "EC50", "setting": "[15]", "value": "> 67.5 µM (inactive)"}]}, {"smiles": "CCOC(=O)N1CCN(C(=O)COc2cc(=O)n(CC)c3ccccc23)CC1", "values": [{"measurement": "IC50", "setting": "HEK293", "value": "> 67.5 µM (inactive)"}, {"measurement": "IC50", "setting": "[13]", "value": "> 67.5 µM (inactive)"}]}, {"smiles": "COc1ccc(CC(=O)NC2CCSc3ccccc32)c(OC)c1", "note": "(stereo unspecified)", "values": [{"measurement": "IC50", "setting": "HEK293", "value": "> 67.6 µM (inactive)"}, {"measurement": "IC50", "setting": "[13]", "value": "> 67.6 µM (inactive)"}]}, {"smiles": "COC[C@H]1OC(=O)c2coc3c2[C@@]1(C)C1=C(C3=O)C2CCC(=O)[C@@]2(C)C[C@H]1OC(C)=O", "note": "(stereo partly specified)", "values": [{"measurement": "AC50", "setting": "[16]", "value": "17.8 µM (inconclusive)"}]}, {"smiles": "C#CCOC(=O)C1=CCCN(C)C1", "note": "[ARECAIDINE PROPARGYL ESTER HYDROBROMIDE]", "values": [{"measurement": "AC50", "setting": "[16]", "value": "35.5 µM (inconclusive)"}]}]}
